Experimental data taken from patent US10167262B2, “Herbicidal substituted 3-arylpyrazoles” (FMC CORPORATION, priority 2014, dated 2019).
Read-outs that look alike come from different tables or passages of the source.

Tests used:
Type in all cases: in vivo
[1] = tested on: barnyardgrass (Echinochloa crus-galli); test: Test A pre-/postemergence greenhouse herbicide test, visual injury rating 0-100; conditions: Echinochloa crus-galli, 240 h, 1000 g ai/ha, read-out: Plant response rating (0 to 100 scale), Barnyardgrass
In short: (§1)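 Formulated in non-phytotoxic solvent with surfactant, compounds were applied pre- and postemergence simultaneously. Soil: loam–sand blend. Visual injury, 0 = no effect to 100 = complete control, ~10 days.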

[2] = tested on: velvetleaf (Abutilon theophrasti); test: as above; conditions: Abutilon theophrasti, 240 h, 1000 g ai/ha, read-out: Plant response rating (0 to 100 scale), Velvetleaf
In short: as §1

[3] = tested on: giant foxtail (Setaria faberii); test: as above; conditions: Setaria faberi, 240 h, 1000 g ai/ha, read-out: Plant response rating (0 to 100 scale), Foxtail, Giant
In short: as §1

[4] = tested on: pigweed (Amaranthus retroflexus); test: as above; conditions: Amaranthus retroflexus, 240 h, 1000 g ai/ha, read-out: Plant response rating (0 to 100 scale), Pigweed
In short: as §1

corn (Zea mays) = test: as above; conditions: Zea mays, 240 h, 1000 g ai/ha, read-out: Plant response rating (0 to 100 scale), Corn
In short: as §1

[5] = tested on: morningglory (Ipomoea spp.); test: as above; conditions: Ipomoea, pre-emergence, 240 h; Preemergence, 1000 g ai/ha; read-out: Plant response rating (0 to 100 scale), Morningglory
In short: as §1

[6] = tested on: wheat (Triticum aestivum); test: as above; conditions: Triticum aestivum, 240 h, 1000 g ai/ha, read-out: Plant response rating (0 to 100 scale), Wheat
In short: as §1

[7] = tested on: large (Lg) crabgrass (Digitaria sanguinalis); test: as above; conditions: Digitaria sanguinalis, 240 h, 1000 g ai/ha, read-out: Plant response rating (0 to 100 scale), Crabgrass, Large
In short: as §1

wild oat (Avena fatua) = test: Test C postemergence greenhouse test, plant response rating 0-100; conditions: Avena fatua, post-emergence
In short: (§2)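 Formulated compounds applied postemergence; plants 1- to 4-leaf stage. Evaluated visually vs. untreated controls after roughly two weeks (13–15 d) under greenhouse conditions; 100 denotes complete control.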

[8] = tested on: chickweed (common chickweed, Stellaria media); test: as above; conditions: Stellaria media, post-emergence
In short: as §2

kochia (Kochia scoparia) = test: as above; conditions: Bassia scoparia, post-emergence
In short: as §2

[9] = tested on: giant foxtail (Setaria faberii); test: Test C pre-/postemergence greenhouse test, plant response rating 0-100; conditions: Setaria faberi; for pest or weed control at 62 g/ha: 62 g ai/ha; for pest or weed control at 125 g/ha: 125 g ai/ha; for pest or weed control at 250 g/ha: 250 g ai/ha; for pest or weed control at 500 g/ha: 500 g ai/ha
In short: (§3)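 Scores run from 0, no effect, to 100, complete control, assigned by eye after treated plants and controls spent 13 to 15 days in a greenhouse. Soil-applied treatment went onto freshly sown seed in loam and sand; foliar treatment hit seedlings at the 1- to 4-leaf stage.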

[10] = tested on: winter wheat (Triticum aestivum); test: as above; conditions: Triticum aestivum; for plant injury at 62 g/ha: 62 g ai/ha; for plant injury at 125 g/ha: 125 g ai/ha; for plant injury at 250 g/ha: 250 g ai/ha; for plant injury at 500 g/ha: 500 g ai/ha
In short: as §3

[11] = tested on: johnsongrass (Sorghum halepense); test: as above; conditions: Sorghum halepense; for pest or weed control at 62 g/ha: 62 g ai/ha; for pest or weed control at 125 g/ha: 125 g ai/ha; for pest or weed control at 250 g/ha: 250 g ai/ha; for pest or weed control at 500 g/ha: 500 g ai/ha
In short: as §3

[12] = post-emergence, Postemergence, read-out: Plant response rating (0 to 100), Foxtail, Giant
[13] = post-emergence, Postemergence, scale 0 to 100
[14] = pre-emergence, Preemergence, read-out: Plant response rating, Foxtail, Giant
[15] = post-emergence, Postemergence, read-out: Plant response rating (0 to 100), Wheat
[16] = pre-emergence, Preemergence, read-out: Plant response rating, Wheat
[17] = post-emergence, Postemergence, read-out: Plant response rating (0 to 100), Johnsongrass
[18] = pre-emergence, Preemergence, read-out: Plant response rating, Johnsongrass

C#CCn1cc(C(=O)c2ccccc2)c(-c2cc(Cl)cc(Cl)c2)n1 [Compound 39, [3-(3,5-dichlorophenyl)-1-(2-propyn-1-yl)-1H-pyrazol-4-yl]phenylmethanone]
pest or weed control at 1000 g/ha ([1]; post-emergence, Postemergence): 0% | pest or weed control at 1000 g/ha ([1]; pre-emergence, Preemergence): 0% | pest or weed control at 1000 g/ha ([2]; post-emergence, Postemergence): 100% | pest or weed control at 1000 g/ha ([2]; pre-emergence, Preemergence): 100% | pest or weed control at 1000 g/ha ([3]; post-emergence, Postemergence): 0% | pest or weed control at 1000 g/ha ([3]; pre-emergence, Preemergence): 0% | pest or weed control at 1000 g/ha ([4]; post-emergence, Postemergence): 100% | pest or weed control at 1000 g/ha ([4]; pre-emergence, Preemergence): 100% | plant injury at 1000 g/ha (corn (Zea mays); post-emergence, Postemergence): 0% | plant injury at 1000 g/ha (corn (Zea mays); pre-emergence, Preemergence): 0% | pest or weed control at 1000 g/ha [5]: 0% | plant injury at 1000 g/ha ([6]; post-emergence, Postemergence): 0% | plant injury at 1000 g/ha ([6]; pre-emergence, Preemergence): 0% | pest or weed control at 1000 g/ha ([7]; post-emergence, Postemergence): 0% | pest or weed control at 1000 g/ha ([7]; pre-emergence, Preemergence): 0% | pest or weed control at 62 g/ha (wild oat (Avena fatua); 62 g ai/ha): 0% | pest or weed control at 125 g/ha (wild oat (Avena fatua); 125 g ai/ha): 0% | pest or weed control at 250 g/ha (wild oat (Avena fatua); 250 g ai/ha, scale 0 to 100): 0% | pest or weed control at 500 g/ha (wild oat (Avena fatua); 500 g ai/ha, scale 0 to 100): 5% | pest or weed control at 62 g/ha ([8]; 62 g ai/ha): 98% | pest or weed control at 125 g/ha ([8]; 125 g ai/ha): 98% | pest or weed control at 250 g/ha ([8]; 250 g ai/ha, scale 0 to 100): 100% | pest or weed control at 500 g/ha ([8]; 500 g ai/ha, scale 0 to 100): 100% | pest or weed control at 62 g/ha (kochia (Kochia scoparia); 62 g ai/ha): 15% | pest or weed control at 125 g/ha (kochia (Kochia scoparia); 125 g ai/ha): 40% | pest or weed control at 250 g/ha (kochia (Kochia scoparia); 250 g ai/ha, scale 0 to 100): 55% | pest or weed control at 500 g/ha (kochia (Kochia scoparia); 500 g ai/ha, scale 0 to 100): 80% | pest or weed control at 62 g/ha [9, 12]: 0% | pest or weed control at 125 g/ha [9, 12]: 0% | pest or weed control at 250 g/ha [9, 13]: 0% | pest or weed control at 500 g/ha [9, 13]: 0% | pest or weed control at 62 g/ha [9, 14]: 0% | pest or weed control at 125 g/ha [9, 14]: 0% | pest or weed control at 250 g/ha ([9]; pre-emergence, Preemergence): 0% | pest or weed control at 500 g/ha ([9]; pre-emergence, Preemergence): 0% | plant injury at 62 g/ha [10, 15]: 0% | plant injury at 125 g/ha [10, 15]: 0% | plant injury at 250 g/ha [10, 13]: 0% | plant injury at 500 g/ha [10, 13]: 0% | plant injury at 62 g/ha [10, 16]: 0% | plant injury at 125 g/ha [10, 16]: 0% | plant injury at 250 g/ha ([10]; pre-emergence, Preemergence): 0% | plant injury at 500 g/ha ([10]; pre-emergence, Preemergence): 0% | pest or weed control at 62 g/ha [11, 17]: 0% | pest or weed control at 125 g/ha [11, 17]: 0% | pest or weed control at 250 g/ha [11, 13]: 5% | pest or weed control at 500 g/ha [11, 13]: 5% | pest or weed control at 62 g/ha [11, 18]: 0% | pest or weed control at 125 g/ha [11, 18]: 0% | pest or weed control at 250 g/ha ([11]; pre-emergence, Preemergence): 0% | pest or weed control at 500 g/ha ([11]; pre-emergence, Preemergence): 0%
